Earlier results as cited in US20220183969A1, “OCULAR INSERT CONTAINING A GLUCOCORTICOID” (Ocular Therapeutix, Inc., priority 2020, published 2022).

Conditions: for Equivalent Dose: established equivalent oral dose; for Relative Potency: oral glucocorticoid potency with reference to cortisol

SMILES	Equivalent Dose [mg]	Relative Potency
C[C@]12CCC(=O)C=C1CC[C@@H]1[C@@H]2[C@@H](O)C[C@@]2(C)[C@H]1CC[C@]2(O)C(=O)CO [Cortisol]	20	1
C[C@@H]1C[C@H]2[C@@H]3CCC4=CC(=O)C=C[C@]4(C)[C@@]3(F)[C@@H](O)C[C@]2(C)[C@@]1(O)C(=O)CO [Dexamethasone, 9-Fluor-11β,17,21-trihydroxy-16α-methyl-pregna-1,4-dien-3,20-dion]	0.8	25-80
C[C@]12C=CC(=O)C=C1CC[C@@H]1[C@@H]2[C@@H](O)C[C@@]2(C)[C@H]1CC[C@]2(O)C(=O)CO [Prednisolone]	5	4
C[C@]12C=CC(=O)C=C1CC[C@H]1[C@@H]3C[C@@H](O)[C@](O)(C(=O)CO)[C@@]3(C)C[C@H](O)[C@@]12F [Triamcinolone]	4	5
